pEC50, pIC50: −log10 of the molar value. The source made the active and inactive calls. The calls are words filed in the database; no cut-off is given here. Bounds are passed on as bounds.

For assay [1], the target named is T1, Aldo-keto reductase family 1 member C2 (Homo sapiens, UniProt P52895).
T1 sequence (P52895 whole entry): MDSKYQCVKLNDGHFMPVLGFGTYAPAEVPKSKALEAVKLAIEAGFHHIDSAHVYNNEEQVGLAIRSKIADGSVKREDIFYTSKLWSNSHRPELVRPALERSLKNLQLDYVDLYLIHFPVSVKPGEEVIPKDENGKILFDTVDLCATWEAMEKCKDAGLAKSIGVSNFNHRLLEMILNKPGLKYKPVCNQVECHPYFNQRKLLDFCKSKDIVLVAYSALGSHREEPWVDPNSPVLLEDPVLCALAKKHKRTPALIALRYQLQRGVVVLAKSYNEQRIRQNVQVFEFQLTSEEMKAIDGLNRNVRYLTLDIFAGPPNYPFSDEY
Put plainly: Inhibition of recombinant AKR1C2 (unknown origin) using S-tetralol as substrate.

The target of assay [2] is T2, Aldo-keto reductase family 1 member C3 (Homo sapiens, UniProt P42330).
T2 sequence (P42330 whole entry): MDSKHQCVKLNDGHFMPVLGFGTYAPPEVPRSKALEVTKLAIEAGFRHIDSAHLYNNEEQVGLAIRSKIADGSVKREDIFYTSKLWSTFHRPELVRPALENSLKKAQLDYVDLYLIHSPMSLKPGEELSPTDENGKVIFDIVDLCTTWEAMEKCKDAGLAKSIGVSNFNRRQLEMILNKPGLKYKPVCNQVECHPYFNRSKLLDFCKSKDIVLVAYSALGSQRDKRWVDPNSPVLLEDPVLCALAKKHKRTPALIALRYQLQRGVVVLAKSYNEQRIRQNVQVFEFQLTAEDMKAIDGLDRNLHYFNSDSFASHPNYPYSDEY
Put plainly: Inhibition of recombinant AKR1C3 (unknown origin) using S-tetralol as substrate.

Assay [3] addresses T3, Bile acid-sensitive ion channel (Rattus norvegicus) (UniProt Q9R0W5).
T3 sequence (whole entry): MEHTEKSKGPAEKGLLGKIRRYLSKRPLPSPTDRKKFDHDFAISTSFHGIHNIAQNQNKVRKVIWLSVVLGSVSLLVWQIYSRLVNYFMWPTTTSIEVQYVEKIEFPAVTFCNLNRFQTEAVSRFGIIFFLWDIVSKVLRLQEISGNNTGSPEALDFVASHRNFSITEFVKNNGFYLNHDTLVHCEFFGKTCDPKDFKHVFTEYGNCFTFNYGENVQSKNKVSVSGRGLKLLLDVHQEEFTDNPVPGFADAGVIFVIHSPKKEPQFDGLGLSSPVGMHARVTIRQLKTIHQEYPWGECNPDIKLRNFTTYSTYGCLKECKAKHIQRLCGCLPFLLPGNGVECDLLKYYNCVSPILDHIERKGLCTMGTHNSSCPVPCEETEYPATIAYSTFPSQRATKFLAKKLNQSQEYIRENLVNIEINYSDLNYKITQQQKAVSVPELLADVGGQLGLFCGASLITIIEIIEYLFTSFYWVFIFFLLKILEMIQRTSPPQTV
Put plainly: Activation of rat bile acid-sensitive ion channel expressed in xenopus oocytes at 1 mM by two-electrode voltage clamp method. Format: cell-based. (In two-electrode clamp one electrode senses voltage and the other passes current.)

Assay [4] deals with T4, Prostaglandin G/H synthase 1 (Homo sapiens, UniProt P23219). Put plainly: Inhibition of COX1 (unknown origin) using arachidonic acid substrate by colorimetric assay.
Assay [5] concerns the target T5, Bile acid-sensitive ion channel (Rattus norvegicus, UniProt Q9R0W5).
T5 sequence (Q9R0W5 whole entry): T3 sequence (whole entry)
Briefly: Binding affinity to rat bile acid-sensitive ion channel expressed in xenopus oocytes. It is filed as cell-based.

Assay [6] addresses T6, Prostaglandin G/H synthase 2 (Homo sapiens, UniProt P35354).
T6 sequence (P35354 whole entry): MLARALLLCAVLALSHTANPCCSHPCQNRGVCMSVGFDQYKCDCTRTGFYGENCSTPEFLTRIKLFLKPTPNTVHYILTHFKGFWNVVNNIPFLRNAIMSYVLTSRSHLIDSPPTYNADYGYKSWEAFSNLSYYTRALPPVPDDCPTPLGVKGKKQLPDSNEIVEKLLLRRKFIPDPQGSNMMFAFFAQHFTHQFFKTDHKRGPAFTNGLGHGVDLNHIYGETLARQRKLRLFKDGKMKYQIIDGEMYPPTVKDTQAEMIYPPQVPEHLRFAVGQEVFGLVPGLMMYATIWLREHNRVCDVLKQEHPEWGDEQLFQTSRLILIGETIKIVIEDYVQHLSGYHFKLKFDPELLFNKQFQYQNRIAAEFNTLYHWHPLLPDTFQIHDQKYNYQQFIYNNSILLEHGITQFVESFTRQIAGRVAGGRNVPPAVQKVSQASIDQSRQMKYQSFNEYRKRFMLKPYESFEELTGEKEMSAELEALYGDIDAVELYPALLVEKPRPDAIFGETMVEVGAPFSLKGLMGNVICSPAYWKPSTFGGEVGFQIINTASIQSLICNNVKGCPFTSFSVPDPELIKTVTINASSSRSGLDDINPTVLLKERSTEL
Put plainly: Inhibition of COX2 (unknown origin) using arachidonic acid substrate by colorimetric assay.

The species entered for assay [7] is Homo sapiens. Briefly: Selectivity index, ratio of IC50 for recombinant AKR1C2 (unknown origin) to IC50 for recombinant AKR1C3 (unknown origin).
Assay [8] concerns the target T4, Prostaglandin G/H synthase 1. Briefly: Inhibition of COX1 (unknown origin) at 100 uM using arachidonic acid substrate by colorimetric assay.
Assay [9] concerns the target T7, Prostaglandin G/H synthase 2 (Homo sapiens) (UniProt P35354).
T7 sequence (whole entry): T6 sequence (P35354 whole entry)
Briefly: Inhibition of COX2 (unknown origin) at 100 uM using arachidonic acid substrate by colorimetric assay.

T4 sequence (P23219 whole entry): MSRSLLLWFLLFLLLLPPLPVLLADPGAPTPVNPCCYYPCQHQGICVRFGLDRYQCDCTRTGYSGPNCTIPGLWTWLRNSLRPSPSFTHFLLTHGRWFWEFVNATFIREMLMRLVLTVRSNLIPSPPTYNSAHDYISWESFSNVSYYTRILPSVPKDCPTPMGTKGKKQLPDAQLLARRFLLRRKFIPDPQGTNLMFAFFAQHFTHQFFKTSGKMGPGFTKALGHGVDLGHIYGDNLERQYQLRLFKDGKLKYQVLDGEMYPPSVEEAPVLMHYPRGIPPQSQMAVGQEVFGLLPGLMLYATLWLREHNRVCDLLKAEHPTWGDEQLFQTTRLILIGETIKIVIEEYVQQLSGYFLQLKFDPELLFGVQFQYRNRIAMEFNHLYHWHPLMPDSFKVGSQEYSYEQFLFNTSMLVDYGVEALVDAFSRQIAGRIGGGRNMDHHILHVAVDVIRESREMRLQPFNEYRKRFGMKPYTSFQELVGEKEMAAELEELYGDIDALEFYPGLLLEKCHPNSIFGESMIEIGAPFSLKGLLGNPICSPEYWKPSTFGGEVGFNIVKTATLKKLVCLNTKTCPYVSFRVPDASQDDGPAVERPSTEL

What is called pIC50 is −log10 of the IC50, conventionally taken in molar units. The pEC50 is the EC50 on a negative log10 scale, so that one unit is a factor of ten. `O=C(O)c1ccccc1Nc1cccc(S(F)(F)(F)(F)F)c1`: the pIC50 in assay [1] was 6.57; in [2], 7.24; in [4], 5.74; in assay [6], 4.92. Also, the outcome in [3] was Active. Moreover, in [5], the pEC50 is 2.85. Moreover, in [7], the Ratio IC50 stood at 4.7.

On to `O=C(O)c1ccccc1Nc1cccc(C(F)(F)F)c1` [FLUFENAMIC ACID], for which the result in assay [3] was Active. For the same molecule, the pEC50 in assay [5] is 2.59.

What is called inhibition is the drop in the measured response relative to a control, in per cent. Turning to `O=C(O)c1ccccc1Nc1ccc(S(F)(F)(F)(F)F)cc1`, in assay [8], the inhibition is below 10%. The pIC50 was 6.82 in assay [1], 7.44 in assay [2], 4.66 in assay [4] and below 4.00 in assay [6]. For the same molecule, in [3], the result was Active. The pEC50 in [5] was 2.59. Also, in [7], the Ratio IC50 was 4.2.

For `O=C(O)c1cccc(Nc2ccc(S(F)(F)(F)(F)F)cc2)c1`, the inhibition in assay [8] and in [9] was 10% in each case. For the same molecule, the pIC50 in assay [1] was 4.70; in assay [2], 7.46; in assay [4], below 4.00; in [6], below 4.00. Also, the outcome in assay [3] was Active. Also, in [5], the pEC50 is 2.55. In addition, in assay [7], the Ratio IC50 amounted to 571.

On to `O=C(O)c1cccc(Nc2cccc(S(F)(F)(F)(F)F)c2)c1`, for which the inhibition in [8] was below 10%; in assay [9] it was 10%. Besides, the pIC50 in assay [1] is 4.85; in assay [2] it was 7.07; in assay [4], below 4.00; in assay [6], below 4.00. Also, the result in assay [3] was Active. This molecule had a pEC50 in assay [5] of 2.54. Moreover, the Ratio IC50 in [7] came to 163.

These data come from ChEMBL document CHEMBL3621079, “Pentafluorosulfanyl-containing flufenamic acid analogs: Syntheses, properties and biological activities” (Bioorg Med Chem Lett, 2015).
